Measured values taken from PubChem BioAssay (NCI).
Where “and” joins values, the source holds several entries; their conditions need not be identical. Identical values can stand only once.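 Grown in 96-well plates, cells were treated for 48 hours with each compound at five concentrations. Insufficient inhibition: endpoint recorded as highest concentration tested. GI50 is the concentration that inhibits growth by half. TGI is the concentration that stops growth completely.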

What follows are compounds tested on 786-0 renal (assay: NCI anticancer screen, dose series, 48 h).
Compound CCC(C)C1=C(OC(C)=O)[N+]2([O-])Oc3ccc(-c4c(OC(C)=O)c(OC(C)=O)c(-c5ccc(OC(C)=O)cc5)c(OC(C)=O)c4OC(C)=O)cc3OC2(C(C)CC)C(=O)N1OC(C)=O (centres undefined) has a TGI of 24 µM. With O=C(O)C1C2CCC(O2)C1C(=O)Nc1cccc2cccnc12 (centres undefined) the TGI was > 100 µM. COc1cccc2c1Cc1cc(-c3ccccc3)[n+](C)n1-2 gave a TGI of 84.2 µM. With O=C(OCN1C(=O)C2C3C=CC(C2C1=O)C1C2C(=O)N(COC(=O)C4CCCN4)C(=O)C2C31)C1CCCN1 (centres undefined) the TGI was > 60.6 µM. O=C(C[n+]1ccc2ccccc2c1)c1ccc2ccc3ccccc3c2c1 showed a TGI of 18 µM. NCCCCc1cc(O)c2c(c1O)C(=O)c1ccccc1C2=O was tested, and the TGI was 19.6 µM. In the case of Cc1ccccc1C(=O)N/N=C/c1ccc(Sc2nccn2C)c([N+](=O)[O-])c1, the TGI is reported as > 100 µM. Work on CCn1c(-c2ccc(N=NNc3ccc(-c4n[nH]c(=S)n4CC)cc3)cc2)n[nH]c1=S yielded a TGI of 37.2 µM. In the case of CC(=O)C1=C(C)N(c2ccc(C)cc2)C2(O)C=CC(=O)C3C(=O)N(c4ccccc4)C(=O)C132 (centres undefined), the TGI is reported as > 100 µM. COc1ccc2c(c1)[nH]c1c(/C=C/c3ccccc3)nccc12 was tested, and the TGI was 42.2 µM. With Clc1cc2c(cc1Cl)CC(NCCN1CCCC1)CC2 (centres undefined) the TGI was 26.3 µM. For CCN(CC(=O)O)C(=O)c1cccnc1, the TGI was > 100 µM. Work on NCCSC(c1ccccc1)c1ccccc1 yielded a TGI of 32.8 µM. For CCCCCCCCC/C=C/C=C/C(=O)NCC(=O)NC1C(O)C(O)C(Nc2ncnc3nc[nH]c23)OC1C(O)CO (centres undefined), the TGI was 0.176 µM and 0.256 µM. COc1nc(C#CC2(O)CCCCC2)nc(OC)n1 was tested, and the TGI was > 100 µM. C[C@H](CCC(=O)O)[C@H]1CC[C@@]2(C)[C@@H]3C(=O)C[C@H]4C(C)(C)[C@@H](O)CC[C@]4(C)[C@H]3C(=O)C[C@]12C was tested, and the TGI was > 100 µM.

Each compound was assayed on HCT-15 colon (assay: NCI anticancer screen, dose series, 48 h).
In the case of CCOC(=O)C1=NN(c2ccc(C)cc2)C2=CC(C)=NN(C)C(=S)N21, the TGI is reported as > 100 µM. O=C(c1cccs1)N(C(=S)OC12CC3CC(CC(C3)C1)C2)c1ccccc1 was tested, and the TGI was > 100 µM. With C(=N\NC1=NCCN1)/c1ccc(-c2cn3cc(/C=N/NC4=NCCN4)ccc3n2)cc1 the TGI was > 100 µM. CC1CC[C@@]2(OC1)OC1C[C@H]3[C@@H]4CC=C5CC(OC6OC(CO)C(OC7OC(CO)C(O)C(OC8OCC(O)C(O)C8O)C7OC7OC(CO)C(O)C(O)C7O)C(O)C6O)CCC5(C)[C@H]4CCC3(C)C1[C@@H]2C (some centres undefined) was tested, and the TGI was > 25 µM. Nc1ccccc1S(=O)(=O)c1ccccc1 was tested, and the TGI was > 100 µM. Cc1c(N2C(=O)CS(=O)(=O)C2c2cccc(Oc3ccccc3)c2)c(=O)n(-c2ccccc2)n1C (centres undefined) was tested, and the TGI was > 100 µM. In the case of COc1cc2c(ccc3c4cc(OC)c(OC)cc4c[n+](C)c23)cc1O, the TGI is reported as > 75 µM. For CNC(=O)OCc1c(CO)nc(SC)n1C, the TGI was > 100 µM. With CN(C)CC(CC1=C(CC(CN(C)C)N(C)C)CCC1)N(C)C (centres undefined) the TGI was > 100 µM. CCC1CN(C(=O)c2ccccc2)C(Cc2c[nH]c3ccccc23)C(=O)C1CC(=O)OC (centres undefined) was tested, and the TGI was > 100 µM. For CC12CC3OC(=O)C1COC14OC5(C2C1=O)C(O)(CCC1C4CC(O)C2(O)CC=CC(=O)C12C)C(=O)OC35C (centres undefined), the TGI was > 100 µM. For NC(=O)c1c(NC(=O)c2ccccn2)sc2c1CCC(=O)C2, the GI50 was 2630 nM and the TGI was > 100 µM. For O=c1cccccc1[O-].O=c1cccccc1[O-].[O]=[U+2]=[O], the TGI was > 100 µM. In the case of COc1ccc(C(=O)/C=C/c2cccc([N+](=O)[O-])c2)c(OC)c1, the GI50 is reported as 916 nM and the TGI is reported as 2.61 µM. With CCOC(=O)C(NC(=O)c1ccco1)(Nc1nc2ccc(OCC)cc2s1)C(F)(F)F (centres undefined) the TGI was > 100 µM. For CCC(C)C1=C(OC(C)=O)[N+]2([O-])Oc3ccc(-c4c(OC(C)=O)c(OC(C)=O)c(-c5ccc(OC(C)=O)cc5)c(OC(C)=O)c4OC(C)=O)cc3OC2(C(C)CC)C(=O)N1OC(C)=O (centres undefined), the TGI was > 50 µM. For O=C(O)C1C2CCC(O2)C1C(=O)Nc1cccc2cccnc12 (centres undefined), the TGI was > 100 µM. COc1cccc2c1Cc1cc(-c3ccccc3)[n+](C)n1-2 was tested, and the TGI was > 100 µM. O=C(OCN1C(=O)C2C3C=CC(C2C1=O)C1C2C(=O)N(COC(=O)C4CCCN4)C(=O)C2C31)C1CCCN1 (centres undefined) was tested, and the TGI was > 58.7 µM. For O=C(C[n+]1ccc2ccccc2c1)c1ccc2ccc3ccccc3c2c1, the TGI was 18.9 µM. NCCCCc1cc(O)c2c(c1O)C(=O)c1ccccc1C2=O was tested, and the TGI was 25.5 µM. In the case of Cc1ccccc1C(=O)N/N=C/c1ccc(Sc2nccn2C)c([N+](=O)[O-])c1, the TGI is reported as > 100 µM. In the case of CCn1c(-c2ccc(N=NNc3ccc(-c4n[nH]c(=S)n4CC)cc3)cc2)n[nH]c1=S, the TGI is reported as > 100 µM. CC(=O)C1=C(C)N(c2ccc(C)cc2)C2(O)C=CC(=O)C3C(=O)N(c4ccccc4)C(=O)C132 (centres undefined) was tested, and the TGI was > 100 µM. Work on COc1ccc2c(c1)[nH]c1c(/C=C/c3ccccc3)nccc12 yielded a TGI of 34.7 µM. In the case of Clc1cc2c(cc1Cl)CC(NCCN1CCCC1)CC2 (centres undefined), the TGI is reported as 26.5 µM. [N-]=[N+]=CC(=O)c1ccccc1C#CCCc1ccccc1 was tested, and the TGI was > 100 µM. With CCN(CC(=O)O)C(=O)c1cccnc1 the TGI was > 100 µM. In the case of NCCSC(c1ccccc1)c1ccccc1, the TGI is reported as > 100 µM. CCCCCCCCC/C=C/C=C/C(=O)NCC(=O)NC1C(O)C(O)C(Nc2ncnc3nc[nH]c23)OC1C(O)CO (centres undefined) showed a GI50 of 2050 nM. For COc1nc(C#CC2(O)CCCCC2)nc(OC)n1, the TGI was 15.6 µM. In the case of C[C@H](CCC(=O)O)[C@H]1CC[C@@]2(C)[C@@H]3C(=O)C[C@H]4C(C)(C)[C@@H](O)CC[C@]4(C)[C@H]3C(=O)C[C@]12C, the TGI is reported as > 100 µM.

The compounds below were run on NCI/ADR-RES ovarian (assay: NCI anticancer screen, dose series, 48 h).
With CCOC(=O)C1=NN(c2ccc(C)cc2)C2=CC(C)=NN(C)C(=S)N21 the TGI was > 100 µM. For O=C(c1cccs1)N(C(=S)OC12CC3CC(CC(C3)C1)C2)c1ccccc1, the TGI was > 100 µM. With C(=N\NC1=NCCN1)/c1ccc(-c2cn3cc(/C=N/NC4=NCCN4)ccc3n2)cc1 the TGI was > 100 µM. CC1CC[C@@]2(OC1)OC1C[C@H]3[C@@H]4CC=C5CC(OC6OC(CO)C(OC7OC(CO)C(O)C(OC8OCC(O)C(O)C8O)C7OC7OC(CO)C(O)C(O)C7O)C(O)C6O)CCC5(C)[C@H]4CCC3(C)C1[C@@H]2C (some centres undefined) showed a TGI of 12.9 µM. For Cc1c(N2C(=O)CS(=O)(=O)C2c2cccc(Oc3ccccc3)c2)c(=O)n(-c2ccccc2)n1C (centres undefined), the TGI was > 100 µM. With COc1cc2c(ccc3c4cc(OC)c(OC)cc4c[n+](C)c23)cc1O the TGI was > 75 µM. In the case of CNC(=O)OCc1c(CO)nc(SC)n1C, the TGI is reported as > 100 µM. For CN(C)CC(CC1=C(CC(CN(C)C)N(C)C)CCC1)N(C)C (centres undefined), the TGI was > 100 µM. With CCC1CN(C(=O)c2ccccc2)C(Cc2c[nH]c3ccccc23)C(=O)C1CC(=O)OC (centres undefined) the TGI was > 100 µM. With CC12CC3OC(=O)C1COC14OC5(C2C1=O)C(O)(CCC1C4CC(O)C2(O)CC=CC(=O)C12C)C(=O)OC35C (centres undefined) the TGI was > 100 µM. For COc1ccc(C(=O)/C=C/c2cccc([N+](=O)[O-])c2)c(OC)c1, the GI50 was 1530 nM and the TGI was > 50 µM. For CCOC(=O)C(NC(=O)c1ccco1)(Nc1nc2ccc(OCC)cc2s1)C(F)(F)F (centres undefined), the TGI was > 100 µM. In the case of CCC(C)C1=C(OC(C)=O)[N+]2([O-])Oc3ccc(-c4c(OC(C)=O)c(OC(C)=O)c(-c5ccc(OC(C)=O)cc5)c(OC(C)=O)c4OC(C)=O)cc3OC2(C(C)CC)C(=O)N1OC(C)=O (centres undefined), the TGI is reported as > 50 µM.
